Test results taken from the supplement of paper PMC4449167.
± gives the standard deviation of the averaged measurements.

System: WB-F344
Test: gap junctional intercellular communication (dye spread) relative to vehicle control (fraction of control); higher = more gap junction communication (less inhibition)
Experimental: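 Confluent WB-F344 rat liver epithelial cells were pretreated with vehicle, D609 (PC-PLC inhibitor, 50 µM, 20 min), U0126 (MEK1/2 inhibitor, 20 µM, 30 min) or resveratrol (100 µM, 15 min), then exposed to a GJIC-dysregulating chemical at the listed dose and time. GJIC was measured by scalpel loading-dye transfer with Lucifer Yellow (3 min), and the dye-spread area was quantified in ImageJ as a fraction of the vehicle control (FOC). Individual values come from at least 3 independent experiments.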

[1] = pretreatment: D609+GJIC dysreg.
[2] = pretreatment: U0126+GJIC dysreg.
[3] = dose note: (70 uM), pretreatment: D609+GJIC dysreg.
[4] = dose note: (70 uM), pretreatment: GJIC dysreg.
[5] = dose note: (70 uM), pretreatment: RES+GJIC dysreg.
[6] = dose note: (70 uM), pretreatment: U0126+GJIC dysreg.
[7] = dose note: (100 uM), pretreatment: D609+GJIC dysreg.
[8] = dose note: (100 uM), pretreatment: GJIC dysreg.
[9] = dose note: (100 uM), pretreatment: RES+GJIC dysreg.
[10] = dose note: (100 uM), pretreatment: U0126+GJIC dysreg.

SMILES	gap junctional intercellular communication [1]	gap junctional intercellular communication (pretreatment: GJIC dysreg.)	gap junctional intercellular communication (pretreatment: RES+GJIC dysreg.)	gap junctional intercellular communication [2]	further results
CC(C)C[C@H](NC(=O)[C@H](CC(C)C)NC(=O)[C@H](Cc1ccccc1)NC(=O)[C@@H](N)CO)C(=O)N[C@@H](CCCN=C(N)N)C(=O)N[C@@H](CC(N)=O)C(=O)O [Thrombin receptor activator peptide-6] (compound abbreviation / co-treatment: TRAP-6, exposure (dose, time): 50 µM, 30 min)	0.588 ± 0.089	0.4 ± 0.058	0.967 ± 0.04	1.05 ± 0.036	
CC(C)(OOC(C)(C)c1ccccc1)c1ccccc1 [Dicumylperoxide] (compound abbreviation / co-treatment: DiCuOOH, exposure (dose, time): 50 µM, 15 min)	0.884 ± 0.058	0.386 ± 0.088	0.829 ± 0.081	0.324 ± 0.11	
Cc1nc2sccn2c(=O)c1CCN1CCC(=C(c2ccccc2)c2ccc(F)cc2)CC1 (compound abbreviation / co-treatment: R59022, exposure (dose, time): 30-50 µM, 10 min)	0.848 ± 0.081	0.344 ± 0.13	0.867 ± 0.16	0.641 ± 0.11	
Cc1ccc2ccc3cccc4ccc1c2c34 [1-Methylpyrene] (compound abbreviation / co-treatment: 1-MePyr, exposure (dose, time): 70 µM, 10 min)	0.956 ± 0.048	0.397 ± 0.072	0.815 ± 0.15	0.345 ± 0.094	
CCCCCCCCCCCC(=O)OCC(O)CO (stereo unspecified) [1-Monolaurin] (compound abbreviation / co-treatment: Lau, exposure (dose, time): 150 µM, 10 min)	0.245 ± 0.028	0.229 ± 0.026	0.245 ± 0.034	0.234 ± 0.034	
Cc1cccc2cc3ccccc3cc12 [1-Methylanthracene] (compound abbreviation / co-treatment: 1-MeA, exposure (dose, time): 70 µM, 10 min)	0.872 ± 0.094	0.278 ± 0.066	0.818 ± 0.14	0.262 ± 0.067	
O=C(O)C(F)(F)C(F)(F)C(F)(F)C(F)(F)C(F)(F)C(F)(F)C(F)(F)F [Perfluorooctanoic acid] (compound abbreviation / co-treatment: PFOA, exposure (dose, time): 80 µM, 10 min)	0.661 ± 0.15	0.24 ± 0.054	0.743 ± 0.12	0.44 ± 0.12	
Clc1cc(Cl)c(-c2cc(Cl)c(Cl)cc2Cl)cc1Cl [2,2',4,4',5,5'-Hexachlorobiphenyl] (compound abbreviation / co-treatment: PCB 153, exposure (dose, time): 50 µM, 30 min)	0.781 ± 0.17	0.353 ± 0.093	0.857 ± 0.11	0.278 ± 0.083	
CCCCC/C=C\C/C=C\C/C=C\C/C=C\CCCC(=O)O [Arachidonic acid] (compound abbreviation / co-treatment: AA, exposure (dose, time): 70-100 µM, 15 min)					gap junctional intercellular communication [3]: 0.164; gap junctional intercellular communication [4]: 0.196; gap junctional intercellular communication [5]: 0.193; gap junctional intercellular communication [6]: 0.244; gap junctional intercellular communication (dose note: (75 uM), pretreatment: D609+GJIC dysreg.): 0.2; gap junctional intercellular communication (dose note: (75 uM), pretreatment: GJIC dysreg.): 0.2; gap junctional intercellular communication (dose note: (75 uM), pretreatment: RES+GJIC dysreg.): 0.207; gap junctional intercellular communication (dose note: (75 uM), pretreatment: U0126+GJIC dysreg.): 0.216; gap junctional intercellular communication (dose note: (90 uM), pretreatment: D609+GJIC dysreg.): 0.29 ± 0.055; gap junctional intercellular communication (dose note: (90 uM), pretreatment: GJIC dysreg.): 0.279 ± 0.058; gap junctional intercellular communication (dose note: (90 uM), pretreatment: RES+GJIC dysreg.): 0.25 ± 0.032; gap junctional intercellular communication (dose note: (90 uM), pretreatment: U0126+GJIC dysreg.): 0.347 ± 0.025; gap junctional intercellular communication [7]: 0.196; gap junctional intercellular communication [8]: 0.193; gap junctional intercellular communication [9]: 0.189; gap junctional intercellular communication [10]: 0.199
O=S(=O)(O)C(F)(F)C(F)(F)C(F)(F)C(F)(F)C(F)(F)C(F)(F)C(F)(F)C(F)(F)F [Perfluorooctanesulfonic acid] (compound abbreviation / co-treatment: PFOSA, exposure (dose, time): 40 µM, 20 min)	0.287 ± 0.045	0.279 ± 0.041	0.329 ± 0.097	0.289 ± 0.037	
CC1(C)[C@@H](O)CC[C@]2(C)[C@H]3C(=O)C=C4[C@@H]5C[C@@](C)(C(=O)O)CC[C@]5(C)CC[C@@]4(C)[C@]3(C)CC[C@@H]12 [ß-Glycyrrhetinic acid] (compound abbreviation / co-treatment: BGA, exposure (dose, time): 30-50 µM, 15 min)					gap junctional intercellular communication (dose note: (30 uM), pretreatment: D609+GJIC dysreg.): 0.242 ± 0.036; gap junctional intercellular communication (dose note: (30 uM), pretreatment: GJIC dysreg.): 0.353 ± 0.03; gap junctional intercellular communication (dose note: (30 uM), pretreatment: RES+GJIC dysreg.): 0.302 ± 0.023; gap junctional intercellular communication (dose note: (30 uM), pretreatment: U0126+GJIC dysreg.): 0.344 ± 0.053; gap junctional intercellular communication (dose note: (50 uM), pretreatment: D609+GJIC dysreg.): 0.225 ± 0.034; gap junctional intercellular communication (dose note: (50 uM), pretreatment: GJIC dysreg.): 0.242 ± 0.042; gap junctional intercellular communication (dose note: (50 uM), pretreatment: RES+GJIC dysreg.): 0.243 ± 0.038; gap junctional intercellular communication (dose note: (50 uM), pretreatment: U0126+GJIC dysreg.): 0.269 ± 0.028
CCc1cccc(CC)c1N(COC)C(=O)CCl [Alachlor] (compound abbreviation / co-treatment: Alachlor, exposure (dose, time): 185 µM, 25 min)	0.285 ± 0.08	0.259 ± 0.072	0.789 ± 0.14	0.356 ± 0.12	
Cc1c2ccccc2c(C)c2ccccc12 [9,10-Dimethylanthracene] (compound abbreviation / co-treatment: 9,10-DiMeA, exposure (dose, time): 70-100 µM, 10 min)					gap junctional intercellular communication [3]: 0.888 ± 0.038; gap junctional intercellular communication [4]: 0.213 ± 0.06; gap junctional intercellular communication [5]: 0.744 ± 0.14; gap junctional intercellular communication [6]: 0.342; gap junctional intercellular communication [7]: 0.937 ± 0.033; gap junctional intercellular communication [8]: 0.317 ± 0.041; gap junctional intercellular communication [9]: 0.871 ± 0.15; gap junctional intercellular communication [10]: 0.356 ± 0.096
CCCCCCCCCCCCCC(=O)O[C@@H]1[C@@H](C)[C@@]2(O)[C@@H](C=C(CO)C[C@]3(O)C(=O)C(C)=C[C@@H]23)[C@@H]2C(C)(C)[C@]12OC(C)=O [12-O-tetradecanoylphorbol-13-acetate] (compound abbreviation / co-treatment: TPA, exposure (dose, time): 10 nM, 30 min)	0.309 ± 0.077	0.202 ± 0.031	1.05 ± 0.13	0.967 ± 0.092	
Oc1c(Cl)c(Cl)c(Cl)c(Cl)c1Cl [Pentachlorophenol] (compound abbreviation / co-treatment: PCP, exposure (dose, time): 50 µM, 10 min)	0.335 ± 0.068	0.282 ± 0.055	0.387 ± 0.14	0.336 ± 0.023	
Cc1cccc2c1Cc1ccccc1-2 [1-Methylfluoren] (compound abbreviation / co-treatment: 1-MeFlu, exposure (dose, time): 70 µM, 10 min)	0.84 ± 0.13	0.266 ± 0.076	1 ± 0.17	0.318 ± 0.052	
Cl[C@H]1[C@H](Cl)[C@@H](Cl)[C@@H](Cl)[C@H](Cl)[C@H]1Cl [Lindane] (compound abbreviation / co-treatment: Lindane, exposure (dose, time): 60 µM, 25 min)	0.335 ± 0.046	0.282 ± 0.062	0.741 ± 0.048	0.695 ± 0.16	
c1ccc2c(c1)-c1cccc3cccc-2c13 [Fluoranthene] (compound abbreviation / co-treatment: Fla, exposure (dose, time): 70 µM, 10 min)	0.718 ± 0.11	0.245 ± 0.064	0.937 ± 0.23	0.285 ± 0.091	
Clc1ccc(C(c2ccccc2Cl)C(Cl)(Cl)Cl)cc1 (stereo unspecified) [1,1,1-Trichloro-2-(2-chlorophenyl)-2-(4-chlorophenyl)ethane] (compound abbreviation / co-treatment: DDT, exposure (dose, time): 30 µM,  20 min)	0.832 ± 0.089	0.308 ± 0.053	0.777 ± 0.025	0.337 ± 0.082	
